Test results from patent US20020090380A1, “Novel formulation comprising thymol useful in the treatment of drug resistant bacterial infections” (priority 2000, published 2002).
Where two headings read alike, the source gives them in different places.

Legend:
Type in all cases: cell-based
E. coli cells [1] = assay: microbe, parasite or virus in culture; conditions: Escherichia coli
[2] = tested on: E. coli strain ET8000 (gyr mutation); assay: microbe, parasite or virus in culture; conditions: Escherichia coli
[3] = tested on: E. coli strain CA8000 (wild type); assay: microbe, parasite or virus in culture; conditions: Escherichia coli
[4] = tested on: nalidixic acid resistant mutants of Escherichia coli; assay: microbe, parasite or virus in culture; conditions: for inhibition zones / zone of inhibition at 50 µg/disc: 50 μg/disc; for zone of inhibition at 100 µg/disc / zone of inhibition at 250 µg/disc / zone of inhibition at 50 µg/disc: Escherichia coli; for zone of inhibition at 100 µg/disc: 100 μg/disc; for zone of inhibition at 250 µg/disc: 250 μg/disc
[5] = tested on: lomefloxacin resistant mutants of Mycobacterium smegmatis; assay: microbe, parasite or virus in culture; conditions: Mycolicibacterium smegmatis; for zone of inhibition at 100 µg/disc: 100 μg/disc
E. coli CAO3 = assay: microbe, parasite or virus in culture; conditions: Escherichia coli, CAO3, read-out: inhibition zones
[6] = tested on: multidrug resistant bacteria
E. coli CAO3 (revert) = assay: microbe, parasite or virus in culture; conditions: Escherichia coli, read-out: inhibition zones
[7] = tested on: Escherchia coli strain CA8000; assay: organism not typed; conditions: for zone of inhibition at 50 µg/disc: 50 μg/disc; for zone of inhibition at 100 µg/disc: 100 μg/disc
Text: Activity of the Compound of the Present Invention Thymol at Different pH in Escherchia coli Strain CA8000
The above table clearly indicate that the activity of the present compound is maximum at neutral pH (7.00).

[8] = tested on: Ethidium bromide resistant strain of Mycobacterium smegmetis; assay: microbe, parasite or virus in culture; conditions: read-out: Activity of thymol (zone)
[9] = tested on: lomefloxacin resistant mutants of Escherichia coli; assay: microbe, parasite or virus in culture
E. coli cells [10] = assay: Disk diffusion assay, synergistic effect of thymol with Mentha hybrid oil; conditions: Escherichia coli; thymol 50 μg/disc
[11] = tested on: Mycobacterium smegmatis wild type strain MC^2; assay: microbe, parasite or virus in culture; conditions: Mycolicibacterium smegmatis
[12] = tested on: E. coli strain DH5α (gyr mutation); assay: microbe, parasite or virus in culture; conditions: Escherichia coli
[13] = read-out: inhibition zones, CAN 102
[14] = read-out: inhibition zones, CAN 104
[15] = read-out: inhibition zones, CAN 105
[16] = read-out: inhibition zones, CAN 106
[17] = read-out: inhibition zones, CAN 107
[18] = read-out: inhibition zones, CAN 108
[19] = read-out: inhibition zones, CAN 109
[20] = read-out: inhibition zones, CAN 110
[21] = read-out: inhibition zones, CAN 111
[22] = read-out: inhibition zones, CAN 112
[23] = read-out: inhibition zones, CAN 113
[24] = read-out: inhibition zones, CAN 114
[25] = read-out: inhibition zones, CAN 115
[26] = read-out: inhibition zones, CAN 116
[27] = read-out: inhibition zones, CAN 117
[28] = read-out: inhibition zones, CAN 118
[29] = read-out: inhibition zones, CAN 119
[30] = read-out: inhibition zones, CAN 120
[31] = read-out: inhibition zones, CAN 121
[32] = read-out: inhibition zones, CAN 122
[33] = read-out: inhibition zones, CAN 123
[34] = read-out: inhibition zones, CAN 124
[35] = read-out: inhibition zones, CAN 125
[36] = read-out: inhibition zones, CAN 126

Cc1ccc(C(C)C)c(O)c1 [Thymol]
zone of inhibition at 12.5 µg/disc (E. coli cells [1]; thymol 12.5 μg/disc): < 0.5 mm | zone of inhibition at 25 µg/disc (E. coli cells [1]; thymol 25.0 μg/disc): 2 mm | zone of inhibition at 50 µg/disc (E. coli cells [1]; thymol 50.0 μg/disc): 3 mm | zone of inhibition at 75 µg/disc (E. coli cells [1]; thymol 75.0 μg/disc): 5 mm | zone of inhibition at 100 µg/disc (E. coli cells [1]; thymol 100.0 μg/disc): 6 mm | zone of inhibition at 20000 µg/mL [2]: 3 mm | zone of inhibition at 50000 µg/mL [2]: 6 mm | zone of inhibition at 10000 µg/mL [3]: 1 mm | zone of inhibition at 20000 µg/mL [3]: 2 mm | zone of inhibition at 50000 µg/mL [3]: 5 mm | zone of inhibition at 250 µg/disc ([3]; read-out: inhibition zones): 4 mm | inhibition zones ([4]; CAN 101): Tr. | inhibition zones ([4]; CAN 102): Tr. | inhibition zones ([4]; CAN 103): Tr. | inhibition zones ([4]; CAN 104): Tr. | inhibition zones ([4]; CAN 105): Tr. | inhibition zones ([4]; CAN 108): Tr. | inhibition zones ([4]; CAN 113): Tr. | inhibition zones ([4]; CAN 122): Tr. | zone of inhibition at 100 µg/disc ([4]; read-out: inhibition zones, CAN 101): 1.5 mm | zone of inhibition at 100 µg/disc [4, 13]: 2 mm | zone of inhibition at 250 µg/disc [4, 13]: 7 mm | zone of inhibition at 100 µg/disc ([4]; read-out: inhibition zones, CAN 103): 2 mm | zone of inhibition at 100 µg/disc [4, 14]: 2 mm | zone of inhibition at 250 µg/disc [4, 14]: 6 mm | zone of inhibition at 100 µg/disc [4, 15]: 2 mm | zone of inhibition at 250 µg/disc [4, 15]: 5 mm | zone of inhibition at 50 µg/disc [4, 16]: 1 mm | zone of inhibition at 100 µg/disc [4, 16]: 2 mm | zone of inhibition at 50 µg/disc [4, 17]: 1 mm | zone of inhibition at 100 µg/disc [4, 17]: 3 mm | zone of inhibition at 250 µg/disc [4, 17]: 5 mm | zone of inhibition at 100 µg/disc [4, 18]: 2 mm | zone of inhibition at 250 µg/disc [4, 18]: 5 mm | zone of inhibition at 50 µg/disc [4, 19]: 1 mm | zone of inhibition at 100 µg/disc [4, 19]: 3 mm | zone of inhibition at 250 µg/disc [4, 19]: 6 mm | zone of inhibition at 50 µg/disc [4, 20]: 1 mm | zone of inhibition at 100 µg/disc [4, 20]: 3 mm | zone of inhibition at 250 µg/disc [4, 20]: 6 mm | zone of inhibition at 50 µg/disc [4, 21]: 1 mm | zone of inhibition at 100 µg/disc [4, 21]: 3 mm | zone of inhibition at 250 µg/disc [4, 21]: 5 mm | zone of inhibition at 50 µg/disc [4, 22]: 1 mm | zone of inhibition at 100 µg/disc [4, 22]: 3 mm | zone of inhibition at 250 µg/disc [4, 22]: 5 mm | zone of inhibition at 100 µg/disc [4, 23]: 2 mm | zone of inhibition at 250 µg/disc [4, 23]: 5 mm | zone of inhibition at 50 µg/disc [4, 24]: 1 mm | zone of inhibition at 100 µg/disc [4, 24]: 3 mm | zone of inhibition at 250 µg/disc [4, 24]: 6 mm | zone of inhibition at 50 µg/disc [4, 25]: 1 mm | zone of inhibition at 100 µg/disc [4, 25]: 3 mm | zone of inhibition at 250 µg/disc [4, 25]: 5 mm | zone of inhibition at 50 µg/disc [4, 26]: 1 mm | zone of inhibition at 100 µg/disc [4, 26]: 3 mm | zone of inhibition at 250 µg/disc [4, 26]: 5 mm | zone of inhibition at 50 µg/disc [4, 27]: 1 mm | zone of inhibition at 100 µg/disc [4, 27]: 3 mm | zone of inhibition at 250 µg/disc [4, 27]: 5 mm | zone of inhibition at 50 µg/disc [4, 28]: 1 mm | zone of inhibition at 100 µg/disc [4, 28]: 3 mm | zone of inhibition at 250 µg/disc [4, 28]: 5 mm | zone of inhibition at 50 µg/disc [4, 29]: 1 mm | zone of inhibition at 100 µg/disc [4, 29]: 3 mm | zone of inhibition at 250 µg/disc [4, 29]: 6 mm | zone of inhibition at 50 µg/disc [4, 30]: 1 mm | zone of inhibition at 100 µg/disc [4, 30]: 3 mm | zone of inhibition at 250 µg/disc [4, 30]: 6 mm | zone of inhibition at 50 µg/disc [4, 31]: 1 mm | zone of inhibition at 100 µg/disc [4, 31]: 3 mm | zone of inhibition at 250 µg/disc [4, 31]: 5 mm | zone of inhibition at 100 µg/disc [4, 32]: 2 mm | zone of inhibition at 250 µg/disc [4, 32]: 5 mm | zone of inhibition at 50 µg/disc [4, 33]: 1 mm | zone of inhibition at 100 µg/disc [4, 33]: 3 mm | zone of inhibition at 250 µg/disc [4, 33]: 5 mm | zone of inhibition at 50 µg/disc [4, 34]: 1 mm | zone of inhibition at 100 µg/disc [4, 34]: 3 mm | zone of inhibition at 250 µg/disc [4, 34]: 5 mm | zone of inhibition at 50 µg/disc [4, 35]: 1 mm | zone of inhibition at 100 µg/disc [4, 35]: 3 mm | zone of inhibition at 250 µg/disc [4, 35]: 5 mm | zone of inhibition at 50 µg/disc [4, 36]: 1 mm | zone of inhibition at 100 µg/disc [4, 36]: 2 mm | zone of inhibition at 250 µg/disc [4, 36]: 5 mm | zone of inhibition at 100 µg/disc ([5]; read-out: inhibition zones, MSL 101): 1 mm | zone of inhibition at 100 µg/disc ([5]; read-out: inhibition zones, MSL 102): 1 mm | zone of inhibition at 100 µg/disc ([5]; read-out: inhibition zones, MSL 103): 1 mm | zone of inhibition at 100 µg/disc ([5]; read-out: inhibition zones, MSL 104): 1 mm | zone of inhibition at 100 µg/disc ([5]; read-out: inhibition zones, MSL 105): 1 mm | zone of inhibition at 100 µg/disc ([5]; read-out: inhibition zones, MSL 106): < 0.5 mm | zone of inhibition at 100 µg/disc ([5]; read-out: inhibition zones, MSL 107): 1 mm | zone of inhibition at 100 µg/disc ([5]; read-out: inhibition zones, MSL 108): 1 mm | zone of inhibition at 100 µg/disc ([5]; read-out: inhibition zones, MSL 109): 1 mm | zone of inhibition at 150000 µg/mL ([5]; read-out: inhibition zones, MSL 109, 150 mg/ml): 2.5 mm | zone of inhibition at 100 µg/disc ([5]; read-out: inhibition zones, MSL 110): 1 mm | zone of inhibition at 100 µg/disc ([5]; read-out: inhibition zones, MSL 111): 1 mm | zone of inhibition at 100 µg/disc ([5]; read-out: inhibition zones, MSL 112): 1 mm | zone of inhibition at 100 µg/disc (E. coli CAO3): 2 mm | increase of the antibacterial activity of thymol [6]: 45% | zone of inhibition at 100 µg/disc (E. coli CAO3 (revert)): 8 mm | inhibition zone ([7]; 25 μg/disc, pH 4.00): trace | zone of inhibition at 25 µg/disc ([7]; 25 μg/disc, pH 7.00): 1 mm | zone of inhibition at 50 µg/disc ([7]; 1M NaOH): 1 mm | zone of inhibition at 50 µg/disc ([7]; pH 4.00): 2 mm | zone of inhibition at 50 µg/disc ([7]; pH 7.00): 2 mm | zone of inhibition at 50 µg/disc ([7]; pH 9.00): 1 mm | zone of inhibition at 100 µg/disc ([7]; 1M NaOH): 2 mm | zone of inhibition at 100 µg/disc ([7]; pH 4.00): 4 mm | zone of inhibition at 100 µg/disc ([7]; pH 7.00): 6 mm | zone of inhibition at 100 µg/disc ([7]; pH 9.00): 3 mm | zone of inhibition at 100 µg/disc [8]: 11 mm | zone of inhibition at 50 µg/disc ([9]; read-out: inhibition zones, CAL 101, 50 μg/disc): 2 mm | zone of inhibition at 100 µg/disc ([9]; read-out: inhibition zones, CAL 101, 100 μg/disc): 4 mm | zone of inhibition at 100 µg/disc ([9]; read-out: inhibition zones, CAL 102, 100 μg/disc): 5 mm | zone of inhibition at 50 µg/disc ([9]; read-out: inhibition zones, CAL 103, 50 μg/disc): 2 mm | zone of inhibition at 100 µg/disc ([9]; read-out: inhibition zones, CAL 103, 100 μg/disc): 3 mm | zone of inhibition at 50 µg/disc ([9]; read-out: inhibition zones, CAL 104, 50 μg/disc): 1 mm | zone of inhibition at 100 µg/disc ([9]; read-out: inhibition zones, CAL 104, 100 μg/disc): 1.5 mm | zone of inhibition at 50 µg/disc ([9]; read-out: inhibition zones, CAL 105, 50 μg/disc): 2 mm | zone of inhibition at 100 µg/disc ([9]; read-out: inhibition zones, CAL 105, 100 μg/disc): 4 mm | zone of inhibition at 50 µg/disc ([9]; read-out: inhibition zones, CAL 106, 50 μg/disc): 2 mm | zone of inhibition at 100 µg/disc ([9]; read-out: inhibition zones, CAL 106, 100 μg/disc): 4 mm | zone of inhibition at 50 µg/disc ([9]; read-out: inhibition zones, CAL 107, 50 μg/disc): 2 mm | zone of inhibition at 100 µg/disc ([9]; read-out: inhibition zones, CAL 107, 100 μg/disc): 4 mm | zone of inhibition at 100 µg/disc ([9]; read-out: inhibition zones, CAL 108, 100 μg/disc): 5 mm | zone of inhibition at 50 µg/disc (E. coli cells [10]): 3 mm | zone of inhibition at 100 µg/disc ([11]; read-out: Activity of thymol (zone)): 8 mm | zone of inhibition at 50 µg/disc ([11]; read-out: inhibition zones): 1 mm | zone of inhibition at 100 µg/disc ([11]; read-out: inhibition zones): 2 mm | zone of inhibition at 250 µg/disc ([11]; read-out: inhibition zones): 4 mm | zone of inhibition at 150000 µg/mL ([11]; read-out: inhibition zones): 3 mm | zone of inhibition at 50000 µg/mL [12]: 5.5 mm
